Source: PMC4532424, “The Novel Cyclophilin Inhibitor CPI-431-32 Concurrently Blocks HCV and HIV-1 Infections via a Similar Mechanism of Action” (PLoS ONE, 2015)
Non-standard residues stand in square brackets, D forms with d. Residues, ends and D or L forms follow the SMILES beside them. NMeThr(4R-Me,4-(CH2)6NHAc) = CN[C@H](C(=O)O)[C@H](O)[C@H](C)CCCCCCNC(C)=O; NMeL = CN[C@@H](CC(C)C)C(=O)O; NMeV = CN[C@H](C(=O)O)C(C)C; dNMeA = CN[C@H](C)C(=O)O; Abu = CC[C@H](N)C(=O)O

System: HIV-1 NL4.3
Assay: HIV-1 nuclear import analysis, integrase Western blot of cytoplasmic and nuclear extracts
Assay type: cell-based
Details: 2 μM; 6 h post-infection; nuclear extract
Experimental: CD4+ HeLa cells (10^7 cells) were infected with NL4.3 (1 μg of p24) derived from 293T-transfected cells in the presence or absence of CPI-431-32 (2 μM). Six hours post-infection, cells were fractionated using the Thermo Scientific NE-PER nuclear and cytoplasmic extraction kit (Life Technologies). Cytoplasmic and nuclear extracts were analyzed by Western blotting using anti-HIV-1 integrase (Abcam), anti-CypA (Abcam) and anti-histone H2 (Abcam) antibodies.
Fig 4 CPI-431-32 blocks HIV-1 reverse transcription and nuclear import. TZM cells were infected with DNase-treated NL4-3 HIV-1 together with DMSO or CPI-431-32 (2 μM). Target cell DNA was isolated at the indicated times and was used to detect early (A) and late HIV-1 reverse transcripts (B). TZM cells were infected with NL4.3 in the presence or absence of CPI-431-32 (2 μM). Six hours post-infection, cells were fractionated and cytoplasmic and nuclear extracts analyzed by Western blotting (C). […]
To further elucidate the effects of CypA-capsid disruption, we analyzed how CPI-431-32 affects the distribution of incoming HIV-1 cores within the first 6 hours of infection as determined by the presence of the HIV-1 integrase protein. TZM cells were infected with HIV-1 NL4.3 for 6 h in the absence or presence of CPI-431-32, then fractionated into cytosolic and nuclear extracts for quantitation of HIV-1 integrase by Western blotting. […]

Question: CC[C@@H]1NC(=O)[C@H]([C@H](O)[C@H](C)CCCCCCNC(C)=O)N(C)C(=O)[C@H](C(C)C)N(C)C(=O)[C@H](CC(C)C)N(C)C(=O)[C@H](CC(C)C)N(C)C(=O)[C@@H](C)NC(=O)[C@H](C)NC(=O)[C@H](CC(C)C)N(C)C(=O)[C@H](C(C)C)NC(=O)[C@H](CC(C)C)N(C)C(=O)[C@@H](C)N(C)C1=O [CPI-431-32] (cyclo(A[dA][NMeL][NMeL][NMeV][NMeThr(4R-Me,4-(CH2)6NHAc)][Abu][dNMeA][NMeL]V[NMeL])) was tested. Which “Nuclear accumulation of HIV-1 integrase (in words)” value did it give?
Answer: completely prevented the nuclear accumulation of integrase
